# Source: patent US20130190223A1, “NONIMMUNOSUPPRESSIVE CYCLOSPORINE ANALOGUE MOLECULES” (ISOTECHNIKA PHARMA INC., priority 2008, published 2013)
# Where two headings read alike, the source gives them in different places.
# Key:
# CyP-D = target: T1, CyP-D (Rattus norvegicus, UniProt P29117); type: biochemical; settings: mitochondria isolated from rat liver, 190 μM calcium, swelling as decline in A540
# T1 construct: Mitochondria were isolated from fresh rat liver; from tissue; host or cells: rat liver mitochondria
# From the text: A mitochondria swelling assay was used to measure the efficacy of NICAMs in blocking CyP-D and mitochondrial permeability transition. Under certain pathological conditions, mitochondria lose the ability to regulate calcium levels, and excessive calcium accumulation in the mitochondrial matrix results in the opening of large pores in the inner mitochondrial membrane. Nonselective conductance of ions and molecules up to 1.5 kilodaltons through the pore, a process called mitochondrial permeability transition, leads to swelling of mitochondria and other events which culminate in cell death. […] In general, mitochondria isolated from rat liver were exposed to calcium to induce MPTP opening in the absence or presence of test compounds, and calcium-induced swelling was measured as a reduction in light absorbance at 540 nm.
# Mitochondria were isolated from fresh rat liver. Ice-cold or 4° C. conditions were used throughout all steps of the isolation. The liver was rinsed thoroughly and chopped in a small volume of isolation buffer (IB; 10 mM Hepes, 70 mM sucrose, 210 mM mannitol, 0.5 mM EDTA). Aliquots of the minced liver were homogenized in IB using a Teflon-glass Potter-Elvehjem tissue grinder and passed through a cell screen filter. The filtered homogenate was centrifuged at 600 g for 10 min, then the resulting supernatant centrifuged at 7000 g for 10 min. The supernatant was discarded, and the pellet resuspended in wash buffer (10 mM Hepes, 70 mM sucrose, 210 mM mannitol) and centrifuged a final time at 7000 g for 10 min. The supernatant was discarded, and the mitochondria-containing pellet suspended and stored on ice in 2 mL of respiration buffer (RB; 5 mM Hepes, 70 mM sucrose, 210 mM mannitol, 10 mM sodium succinate, 1 mM sodium phosphate dibasic).
# Test compound solutions were prepared from 10 mg/ml stocks (dimethyl sulfoxide vehicle) first by diluting the test compound 1000× into respiration buffer #2 (RB2; 5 mM Hepes, 70 mM sucrose, 210 mM mannitol, 10 mM sodium succinate, 1 mM sodium phosphate dibasic, 1% fetal bovine serum, 2 μM rotenone), then by 3×-serial dilutions in RB2 to achieve test compound concentrations of 10000, 3333, 1111, 370, 123, 41, and 14 ng/mL. Polystyrene tubes and plates were used for all preparations.
# Swelling assays were completed in a 96-well flat-bottom polystyrene plates. In each well a 10-μL aliquot of mitochondria suspension, equivalent to 100-200 μg total protein, was combined with 90 μL of test compound, incubated for 10 min, then the baseline absorbance measured on a plate reader (540 nm wavelength; A540). Swelling was induced by adding 5 μL of 4 mM calcium chloride to achieve a final calcium concentration of 190 μM. Mitochondria swelling was indicated by a decline in A540. […] Duplicate samples were assayed for each test compound concentration.
# Means and ranges of duplicate samples are shown.
# human lymphocytes = assay: Immunosuppressive potency: inhibition of proliferation of anti-CD3 stimulated human lymphocytes (CFSE, flow cytometry); type: cell-based; settings: relative potency: IC50 for inhibition of cell division normalized to CsA, 3 days incubation
# Procedure: The immunosuppressive potency of test compounds was assessed by measuring their ability to inhibit the proliferation of human lymphocytes in cell culture. Lymphocytes were isolated from blood of normal human volunteers by Ficoll-gradient centrifugation and stained with 2 μg/ml carboxyfluoroscein diacetate succinimydyl ester (CFSE), a fluorescent cell division tracer molecule. Cells were stimulated through the CD3/T-cell receptor by seeding cells at 300,000/well into 96-well flat-bottom, high-binding plates coated with 1 μg/ml UCHT-1 anti-human CD3 antibody. Test compounds were prepared first as 10 mg/ml stock solutions in dimethylsulfoxide (DMSO). Test solutions were prepared by 500-fold dilution of the DMSO stock solutions, then 3-fold serial dilutions in cell culture medium (RPMI+5% FBS+penicillin-steptomycin) for a total of 7 concentrations per compound. Test solutions were added in equal volume to the culture wells containing cells to achieve final concentrations after dilution of 13.7 ng/ml-10,000 ng/ml. […] Following 3 days incubation cells were stained with CD95-APC (lymphocyte activation marker) and analyzed by flow cytometry with a Becton Dickinson FACSCalibur. Percentage cell division was assessed in forward/side-scatter-gated lymphocytes by measuring the proportion of cells that underwent one or more cell divisions as determined by serial halving of CFSE intensity. The nondivided parent population was determined from samples maintained in culture without anti-CD3 stimulation. IC50 values for inhibition of cell division were determined by nonlinear regression analysis. […]
# calcineurin = settings: literature statement; cited from earlier work
# CyP-A = CyP-A (Homo sapiens, UniProt P62937); settings: cited from earlier work
# CyP-A, sequence (P62937 whole entry): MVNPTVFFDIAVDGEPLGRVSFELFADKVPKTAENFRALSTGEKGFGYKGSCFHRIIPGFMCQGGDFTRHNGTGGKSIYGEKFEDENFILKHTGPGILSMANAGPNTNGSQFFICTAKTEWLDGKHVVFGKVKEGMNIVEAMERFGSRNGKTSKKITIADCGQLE
# T1 sequence (P29117 30-206): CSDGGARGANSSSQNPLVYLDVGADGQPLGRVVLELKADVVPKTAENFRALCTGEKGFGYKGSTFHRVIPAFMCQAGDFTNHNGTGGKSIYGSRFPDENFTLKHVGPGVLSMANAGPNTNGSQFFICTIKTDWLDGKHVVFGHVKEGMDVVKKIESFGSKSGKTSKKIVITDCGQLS
SMILES,CYP-D Inhibition (% Potency Vs CsA) (CyP-D) [%],Immunosuppression (% Relative to CsA) (human lymphocytes) [%],immunosuppressive activity (calcineurin),binding affinity for CyP-A (CyP-A),binding affinity for CyP-A (CyP-A; literature statement)
CCOC(=O)CCCCCCC=CCC(C)C(O)C1C(=O)NC(CC)C(=O)N(C)CC(=O)N(C)C(CC(C)C)C(=O)NC(C(C)C)C(=O)N(C)C(CC(C)C)C(=O)NC(C)C(=O)NC(C)C(=O)N(C)C(CC(C)C)C(=O)N(C)C(CC(C)C)C(=O)N(C)C(C(C)C)C(=O)N1C (stereo not drawn) [Compound 420-113],33.2,<1,–,–,–
CCC1NC(=O)C(C(O)C(C)CC=CCCCCCCC(=O)N(C)C)N(C)C(=O)C(C(C)C)N(C)C(=O)C(CC(C)C)N(C)C(=O)C(CC(C)C)N(C)C(=O)C(C)NC(=O)C(C)NC(=O)C(CC(C)C)N(C)C(=O)C(C(C)C)NC(=O)C(CC(C)C)N(C)C(=O)CN(C)C1=O (stereo not drawn) [Compound 420-114],63.4,<1,–,–,–
CCC1NC(=O)C(C(O)C(C)CC=CCCCCCCNC(=O)OC(C)(C)C)N(C)C(=O)C(C(C)C)N(C)C(=O)C(CC(C)C)N(C)C(=O)C(CC(C)C)N(C)C(=O)C(C)NC(=O)C(C)NC(=O)C(CC(C)C)N(C)C(=O)C(C(C)C)NC(=O)C(CC(C)C)N(C)C(=O)CN(C)C1=O (stereo not drawn) [Compound 420-120],9.4,3,–,–,–
"C/C=C/C[C@@H](C)[C@@H](O)[C@H]1C(=O)N[C@@H](CC)C(=O)N(C)[C@H](C)C(=O)N(CC)[C@@H](C(C)C)C(=O)N[C@@H](C(C)C)C(=O)N(C)[C@@H](CC(C)C)C(=O)N[C@@H](C)C(=O)N[C@H](C)C(=O)N(C)[C@@H](CC(C)C)C(=O)N(C)[C@@H](CC(C)C)C(=O)N(C)[C@@H](C(C)C)C(=O)N1C [DEBIO 025, MeAla^3EtVal^4-Cyclosporin]",–,–,no immunosuppressive activity,retains binding affinity for CyP-A,–
"C/C=C/C[C@@H](C)[C@@H](O)[C@H]1C(=O)N[C@@H](CC)C(=O)N(C)CC(=O)N(C)[C@@H]([C@@H](C)CC)C(=O)N[C@@H](C(C)C)C(=O)N(C)[C@@H](CC(C)C)C(=O)N[C@@H](C)C(=O)N[C@H](C)C(=O)N(C)[C@@H](CC(C)C)C(=O)N(C)[C@@H](CC(C)C)C(=O)N(C)[C@@H](C(C)C)C(=O)N1C [NIM 811, Melle^4-cyclosporine]",–,–,no immunosuppressive activity,–,retains binding affinity for CyP-A
"C/C=C/C[C@@H](C)[C@@H](O)[C@H]1C(=O)N[C@@H](CC)C(=O)N(C)[C@H](SCCN(C)C)C(=O)N(C)[C@@H](CC(C)(C)O)C(=O)N[C@@H](C(C)C)C(=O)N(C)[C@@H](CC(C)C)C(=O)N[C@@H](C)C(=O)N[C@H](C)C(=O)N(C)[C@@H](CC(C)C)C(=O)N(C)[C@@H](CC(C)C)C(=O)N(C)[C@@H](C(C)C)C(=O)N1C [SCY-635, DimethylaminoethylthioSar^3-hydroxyLeu^4-Cyclosporin]",–,–,no immunosuppressive activity,retains binding affinity for CyP-A,–
